A short description of the data set: Water solubility of monomer building blocks (Tables 1 and 2). The conditions noted are these: for solubility: water. It counts as physicochemical.

≈ marks a conversion by molar mass, not a printed value.

For orientation: solubility means how much of the substance goes into solution per volume. High values mean much dissolved substance, low ones little dissolved substance.

In turn, `O=C(O)c1ccc(O)cc1` [4-hydroxy benzoic acid] gave a solubility (Table 2, unit inferred) of 8000 µg/mL (≈ 57.9 mM). On the same count and under the same terms, the figure for `O=C(O)CCc1ccc(O)cc1` [DAT] is 1630 µg/mL (≈ 9.81 mM). Consider `O=C(O)COCC(=O)O` [Diglycolic acid], for which, under “Table 2, unit not given”, the “Water Solubility” value is reported as “Water soluble”.

Regarding `O=C(O)CCCC(=O)O` [Glutaric acid], the solubility (Table 2, unit inferred) is 640000 µg/mL (≈ 4840 mM). Regarding `NC(C(=O)O)c1ccc(O)cc1` (centres unmarked) [Hydroxyphenyl glycine], the solubility is 5000 µg/mL (≈ 29.9 mM).

The values above are taken from patent US8927659B2, “Resorbable phenolic polymers” (TYRX, Inc., priority 2005, dated 2015).
